Test systems include EKVX NSCLC; OVCAR-5 ovarian; UO-31 renal; LOX IMVI melanoma; SW-620 colon; MALME-3M melanoma; HL-60(TB) leukemia; U251 CNS; HCT-116 colon; SR leukemia.
What all share (experiment): NCI-60 cell line screen, 48 h

Molecules are shown by their SMILES. Where “and” joins values, the source holds several entries; their conditions need not be identical. Identical values can stand only once.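 Tested at 5 concentrations; 48 h exposure; 96-well plates; endpoints linearly interpolated, else capped at highest concentration. Here, GI50 denotes the concentration required for 50% inhibition of growth. At the TGI there is no net growth.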

Data on 16 compounds can be found in PubChem BioAssay (NCI).

As for `O=S1c2ccccc2N=C(c2cccs2)CC1c1ccccc1O` (stereo not given), the TGI in the test on EKVX NSCLC, in the test on OVCAR-5 ovarian, with UO-31 renal, in the test on LOX IMVI melanoma, with SW-620 colon and in the test with MALME-3M melanoma was over 100 µM throughout. Moreover, in the test with HL-60(TB) leukemia, the TGI is over 100 µM.

Consider `CCCCCCCN(CCCCCCC)C(=N)c1ccc(OC)c2ccccc12`, for which the GI50 in the test on EKVX NSCLC is 1370 nM; in the test on OVCAR-5 ovarian, 1.29 µM; in the test on UO-31 renal, 0.971 µM; in the test on SW-620 colon, 0.825 µM; in the test with U251 CNS, 1390 nM. Besides, the TGI in the test on EKVX NSCLC is 2.85 µM; with OVCAR-5 ovarian, 2.88 µM; in the test on UO-31 renal, 2.36 µM; in the test with SW-620 colon it was 2.24 µM; in the test on U251 CNS, 2.81 µM.

`CC1O[C@@H]2CCCCC(=O)[C@]2(C)[C@H]1C` (stereo not given in full): the TGI in the test with EKVX NSCLC, in the test with OVCAR-5 ovarian, in the test on UO-31 renal, in the test on LOX IMVI melanoma, with HCT-116 colon and in the test on SW-620 colon was over 100 µM throughout. The TGI in the test with MALME-3M melanoma, with HL-60(TB) leukemia and in the test with U251 CNS was over 100 µM each time.

Take `Cc1ccccc1C1SCc2nc3ccccc3n21` (stereo not given): the TGI in the test with EKVX NSCLC, in the test with OVCAR-5 ovarian, in the test on UO-31 renal, with HCT-116 colon, with MALME-3M melanoma and with HL-60(TB) leukemia was over 100 µM each time. Further, in the test on U251 CNS, the TGI was over 100 µM.

As for `O=C(Nc1c(Cl)cccc1Cl)Oc1cccc2cccnc12`, the GI50 in the test on OVCAR-5 ovarian is 5.01 µM; with SR leukemia it was 3.59 µM; in the test on UO-31 renal, 2.74 µM; in the test with HCT-116 colon, 3690 nM; with SW-620 colon, 4.23 µM; in the test with MALME-3M melanoma, 6190 nM. For the same compound, in the test with HL-60(TB) leukemia, the GI50 was 3.75 µM. The TGI in the test on OVCAR-5 ovarian is over 100 µM; with SR leukemia it was 30.4 µM; in the test on UO-31 renal it was 51.8 µM; in the test with HCT-116 colon it was over 100 µM; in the test on SW-620 colon, over 100 µM; in the test with MALME-3M melanoma, 81 µM. Also, the TGI in the test with HL-60(TB) leukemia is 20.6 µM.

In the case of `O=C1/C(=C/c2ccc(C(=O)O)cc2)CNC/C1=C\c1ccc(C(=O)O)cc1`, the TGI in the test with OVCAR-5 ovarian, in the test on SR leukemia, in the test with UO-31 renal, with HCT-116 colon, in the test with MALME-3M melanoma and in the test with HL-60(TB) leukemia was over 100 µM throughout. Besides, in the test on U251 CNS, the TGI is over 100 µM.

Take `CCCCCCCC(=O)[O-].N.N.N.N.N.[Co+3].[O-][Cl+3]([O-])([O-])[O-]`: the GI50 in the test with EKVX NSCLC is over 100000 nM; with OVCAR-5 ovarian, over 100 µM; in the test on UO-31 renal it was 90.6 µM; in the test on LOX IMVI melanoma it was over 100000 nM; in the test on HCT-116 colon it was over 100000 nM; with SW-620 colon, over 100 µM. The GI50 with MALME-3M melanoma is over 100000 nM; in the test with HL-60(TB) leukemia, over 100 µM; in the test on U251 CNS, over 100000 nM. The TGI with EKVX NSCLC, in the test with OVCAR-5 ovarian, with UO-31 renal, with LOX IMVI melanoma, in the test on HCT-116 colon and with SW-620 colon was over 100 µM each time. Moreover, the TGI with MALME-3M melanoma, in the test on HL-60(TB) leukemia and in the test with U251 CNS was over 100 µM throughout.

`O=C(Nc1cccc(Cl)c1)Nc1cc(C(F)(F)F)ccc1Cl`: the GI50 is 3.17 µM with OVCAR-5 ovarian; 3.78 µM in the test on SR leukemia; 2750 nM with LOX IMVI melanoma; 2540 nM in the test with HCT-116 colon; 3.28 µM in the test with SW-620 colon; 3.02 µM in the test with HL-60(TB) leukemia. In addition, the GI50 in the test on U251 CNS is 3320 nM. For the same compound, the TGI with OVCAR-5 ovarian is 12.7 µM; with SR leukemia it was 38 µM; with LOX IMVI melanoma, 6.96 µM; in the test on HCT-116 colon, 7.48 µM; with SW-620 colon, 10.6 µM; in the test on HL-60(TB) leukemia, 31.3 µM. In the test with U251 CNS, the TGI came out at 8.56 µM.

In the case of `Nc1ncnc2c1ncn2Cc1ccc(CCl)cc1`, the GI50 in the test with EKVX NSCLC was 17000 nM; in the test on OVCAR-5 ovarian, 18.8 µM; with UO-31 renal, 22.3 µM; in the test on LOX IMVI melanoma it was 23500 nM; in the test with HCT-116 colon, 36200 nM; with SW-620 colon, 12.8 µM. In addition, the GI50 in the test on MALME-3M melanoma is 19000 nM; in the test with HL-60(TB) leukemia it was 54.7 µM; in the test on U251 CNS, 21900 nM. Further, the TGI was 34.9 µM in the test on EKVX NSCLC; 35.2 µM in the test with OVCAR-5 ovarian; 46.8 µM with UO-31 renal; 51.7 µM in the test on LOX IMVI melanoma; over 100 µM in the test with HCT-116 colon; 30.2 µM in the test on SW-620 colon. Also, the TGI with MALME-3M melanoma was 43.4 µM; in the test with HL-60(TB) leukemia it was over 100 µM; in the test with U251 CNS, 40.6 µM.

Take `CC1=NN(c2ccccc2)C(=O)C1N=Nc1ccc(Br)cc1C` (stereo not given): the TGI with EKVX NSCLC, with OVCAR-5 ovarian, in the test with HCT-116 colon, in the test with SW-620 colon, with MALME-3M melanoma and in the test with HL-60(TB) leukemia was over 100 µM in each case. This compound registered a TGI in the test with U251 CNS of over 100 µM.

Turning to `O=C(O)[C@@H](Cc1ccccc1)NS(=O)(=O)c1ccc(-c2ccccc2)cc1`, the GI50 is over 100000 nM with EKVX NSCLC; over 100 µM in the test on OVCAR-5 ovarian; 24.9 µM in the test with UO-31 renal; over 100000 nM in the test on LOX IMVI melanoma; over 100000 nM with HCT-116 colon; over 100 µM with SW-620 colon. Moreover, the GI50 in the test with MALME-3M melanoma and in the test with U251 CNS was over 100000 nM in each case. Further, the TGI with EKVX NSCLC was over 100 µM; in the test on OVCAR-5 ovarian, over 100 µM; in the test with UO-31 renal it was 59.4 µM; in the test on LOX IMVI melanoma, over 100 µM; with HCT-116 colon it was over 100 µM; in the test on SW-620 colon, over 100 µM. The TGI with MALME-3M melanoma and in the test with U251 CNS was over 100 µM throughout.

As to `O=[N+]([O-])c1ccc(NC(c2ccccc2)c2ccc3cccnc3c2O)cc1` (stereo not given), the GI50 in the test with EKVX NSCLC was 393 nM; with OVCAR-5 ovarian, 1.77 µM; in the test with UO-31 renal it was 0.297 µM; with LOX IMVI melanoma, 293 nM; with HCT-116 colon it was 310 nM; in the test on SW-620 colon it was 0.389 µM. The GI50 is 826 nM with MALME-3M melanoma, 0.334 µM with HL-60(TB) leukemia and 418 nM with U251 CNS. The TGI in the test with EKVX NSCLC is over 100 µM; in the test on OVCAR-5 ovarian it was over 100 µM; in the test with UO-31 renal, over 31.4 µM; with HCT-116 colon it was over 55.9 µM; in the test with SW-620 colon it was over 100 µM; in the test on MALME-3M melanoma, over 100 µM. The TGI is 1.47 µM in the test on HL-60(TB) leukemia and over 100 µM with U251 CNS.

Regarding `c1ccc2cc(Cn3c(-c4cccc5ccccc45)[n+](Cc4ccc5ccccc5c4)c4c5ccccc5c5ccccc5c43)ccc2c1`, the GI50 in the test on EKVX NSCLC was 268 nM; with OVCAR-5 ovarian, 0.378 µM; in the test with HCT-116 colon it was 176 nM; in the test on MALME-3M melanoma, 285 nM; in the test with HL-60(TB) leukemia, 0.142 µM; with U251 CNS, 165 nM. Moreover, the TGI worked out at 1.66 µM with EKVX NSCLC; 1.68 µM with OVCAR-5 ovarian; 1.5 µM in the test on HCT-116 colon; 1.45 µM with MALME-3M melanoma; 0.585 µM in the test with HL-60(TB) leukemia; 1.42 µM in the test with U251 CNS.

As for `CNC(=O)c1cc(Oc2ccc(NC(=O)Nc3ccc(Cl)c(C(F)(F)F)c3)cc2)ccn1`, the GI50 with EKVX NSCLC is 3240 nM and 2510 nM and 2670 nM; in the test with OVCAR-5 ovarian, 3.54 µM and 4.39 µM and 3.11 µM; with UO-31 renal, 3.08 µM and 3.03 µM and 2.57 µM; in the test on LOX IMVI melanoma it was 2520 nM and 1500 nM and 1670 nM; with HCT-116 colon, 1740 nM and 1500 nM and 1900 nM; in the test on SW-620 colon, 4.26 µM and 3.05 µM and 2.87 µM. For the same compound, the GI50 was 2900 nM and 2080 nM and 2150 nM in the test with MALME-3M melanoma; 0.703 µM and 1.53 µM in the test with HL-60(TB) leukemia; 2840 nM and 2050 nM and 2140 nM in the test with U251 CNS. In addition, the TGI was > 10 µM and 7.86 µM and 13 µM in the test on EKVX NSCLC; > 10 µM and 19.9 µM and 15.7 µM in the test with OVCAR-5 ovarian; > 10 µM and 8.18 µM and 6.2 µM with UO-31 renal; > 10 µM and 3.3 µM and 4.31 µM in the test with LOX IMVI melanoma; > 10 µM and 4.21 µM and 7.48 µM in the test with HCT-116 colon; > 10 µM and 12 µM and 9.35 µM in the test with SW-620 colon. Also, the TGI in the test on MALME-3M melanoma is > 10 µM and 6.71 µM and 11 µM; in the test with HL-60(TB) leukemia, 3.8 µM and 14.1 µM; with U251 CNS, > 10 µM and 5.82 µM and 5.94 µM.

Consider `Cc1ccccc1N=C(c1ccccc1)C1C(=O)c2ccccc2C1=O`, for which the GI50 with EKVX NSCLC is 22200 nM; in the test with OVCAR-5 ovarian, 24.6 µM; with UO-31 renal, 4.14 µM; in the test on LOX IMVI melanoma, 21700 nM; in the test with HCT-116 colon, 2340 nM; with SW-620 colon it was 25.3 µM. In addition, the values for the GI50 in the test with MALME-3M melanoma, in the test with HL-60(TB) leukemia and in the test with U251 CNS were 562 nM, 9.49 µM and 24600 nM, respectively. Moreover, the TGI with EKVX NSCLC is 87.6 µM; in the test with OVCAR-5 ovarian it was over 100 µM; with UO-31 renal, 47.4 µM; in the test on LOX IMVI melanoma, 71.6 µM; with HCT-116 colon, 16.2 µM; with SW-620 colon, over 100 µM. Besides, the TGI with MALME-3M melanoma was 6.66 µM; with HL-60(TB) leukemia, 32.6 µM; with U251 CNS it was over 100 µM.

In the case of `Cc1cc(C2CC(O)C(CO)O2)c(Br)cc1Br` (stereo not given), the GI50 in the test with EKVX NSCLC was 84500 nM; with OVCAR-5 ovarian, over 100 µM; with UO-31 renal it was over 100 µM; in the test on LOX IMVI melanoma it was 80200 nM; with HCT-116 colon, over 100000 nM; in the test with SW-620 colon, over 100 µM. Also, the GI50 is over 100000 nM in the test on MALME-3M melanoma, 73.4 µM with HL-60(TB) leukemia and over 100000 nM in the test on U251 CNS. Also, the TGI with EKVX NSCLC, with OVCAR-5 ovarian, with UO-31 renal, with LOX IMVI melanoma, in the test with HCT-116 colon and in the test with SW-620 colon was over 100 µM throughout. Further, the TGI in the test with MALME-3M melanoma, with HL-60(TB) leukemia and with U251 CNS was over 100 µM throughout.
